According to ChEMBL document CHEMBL1201862, “PubChem BioAssay data set” (2004):
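Briefly, cells in 96-well plates were exposed to five compound concentrations for 48 h, and endpoints were estimated by linear interpolation. GI50 = concentration required for 50% inhibition of growth.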 Activity calls are given as the source filed them. Cut-off read from the data, not from the text of the source: active = GI50 up to about 1.1 µM and inactive = higher.

Legend:
Experiment in all cases: NCI tumour cell line growth inhibition, 48 h
SR = system: SR
UACC-257 = system: UACC-257
XF498 = system: XF498
NCI-H23 = system: NCI-H23
OVCAR-4 = system: OVCAR-4
ACHN = system: ACHN
M19-MEL = system: M19-MEL
KM12 = system: KM12
COLO 205 = system: COLO 205
K562 = system: K562
HOP-92 = system: HOP-92
CCRF-CEM = system: CCRF-CEM
HOP-62 = system: HOP-62
HL-60 = system: HL-60
SW-620 = system: SW-620
SK-MEL-2 = system: SK-MEL-2
HCC 2998 = system: HCC 2998
HCT-15 = system: HCT-15
HCT-116 = system: HCT-116
RPMI-8226 = system: RPMI-8226
A549 = system: A549
IGROV-1 = system: IGROV-1
DMS-114 = system: DMS-114
KM-20L2 = system: KM-20L2
EKVX = system: EKVX
SK-MEL-28 = system: SK-MEL-28
SNB-78 = system: SNB-78
TK-10 = system: TK-10
OVCAR-3 = system: OVCAR-3
CAKI-1 = system: CAKI-1
LXFL 529 = system: LXFL 529
786-0 = system: 786-0
SK-MEL-5 = system: SK-MEL-5
UO-31 = system: UO-31
NCI-H460 = system: NCI-H460
HT-29 = system: HT-29
UACC-62 = system: UACC-62
SK-OV-3 = system: SK-OV-3
SNB-75 = system: SNB-75
OVCAR-8 = system: OVCAR-8
Malme-3M = system: Malme-3M
SF-295 = system: SF-295
A498 = system: A498
SN12C = system: SN12C
MOLT-4 = system: MOLT-4
M14 = system: M14
NCI-H226 = system: NCI-H226
NCI-H522 = system: NCI-H522
U-251 = system: U-251
DLD-1 = system: DLD-1
OVCAR-5 = system: OVCAR-5
SNB-19 = system: SNB-19
SF-268 = system: SF-268
SF-539 = system: SF-539
LOX IMVI = system: LOX IMVI
DMS-273 = system: DMS-273
HOP-18 = system: HOP-18
RXF 393 = system: RXF 393

Measured: GI50

CC(C)c1ccc(O)c(Cc2cc(C(C)C)cc(Cc3cc(C(C)C)ccc3O)c2O)c1
1.7 µM: HCT-15
inactive: SR 1.88 µM | UACC-257 1.71 µM | XF498 1.41 µM | NCI-H23 1.7 µM | OVCAR-4 1.39 µM | ACHN 3.56 µM | M19-MEL 1.61 µM | KM12 1.97 µM | COLO 205 3.32 µM | K562 2.23 µM | HOP-92 1.79 µM | CCRF-CEM 3.39 µM | HOP-62 1.69 µM | HL-60 2 µM | SW-620 1.72 µM | SK-MEL-2 1.61 µM | HCC 2998 1.78 µM | HCT-116 1.78 µM | RPMI-8226 2.08 µM | A549 1.9 µM | IGROV-1 2.46 µM | DMS-114 1.61 µM | KM-20L2 2.07 µM | EKVX 2.65 µM | SK-MEL-28 1.73 µM | SNB-78 2.05 µM | TK-10 1.93 µM | OVCAR-3 1.65 µM | CAKI-1 1.53 µM | LXFL 529 1.49 µM | 786-0 1.7 µM | SK-MEL-5 1.62 µM | UO-31 1.68 µM | NCI-H460 1.83 µM | HT-29 2.25 µM | UACC-62 2.38 µM | SK-OV-3 1.68 µM | SNB-75 2.16 µM | OVCAR-8 2.09 µM | Malme-3M 1.5 µM | SF-295 1.88 µM | A498 1.46 µM | SN12C 1.77 µM | MOLT-4 1.78 µM | M14 1.66 µM | NCI-H226 1.54 µM | NCI-H522 1.57 µM | U-251 1.69 µM | DLD-1 2.01 µM | OVCAR-5 1.75 µM | SNB-19 1.65 µM | SF-268 1.82 µM

CCCC(=O)Oc1ccc(/C=N/NC(N)=S)nc1
> 100 µM: HCT-15
inactive: SR 30 µM | UACC-257 > 100 µM | NCI-H23 > 100 µM | OVCAR-4 > 100 µM | ACHN 35.6 µM | M19-MEL > 100 µM | KM12 > 100 µM | COLO 205 > 100 µM | K562 > 100 µM | HOP-92 > 100 µM | CCRF-CEM 25.5 µM | HOP-62 > 100 µM | HL-60 45.1 µM | SW-620 > 100 µM | SK-MEL-2 > 100 µM | SF-539 36.5 µM | HCC 2998 > 100 µM | HCT-116 > 100 µM | RPMI-8226 > 100 µM | A549 > 100 µM | IGROV-1 > 100 µM | DMS-114 38.2 µM | KM-20L2 > 100 µM | EKVX > 100 µM | SK-MEL-28 > 100 µM | SNB-78 > 100 µM | TK-10 > 100 µM | OVCAR-3 > 100 µM | CAKI-1 > 100 µM | LXFL 529 > 100 µM | 786-0 37 µM | SK-MEL-5 > 100 µM | LOX IMVI 54.3 µM | DMS-273 > 100 µM | HOP-18 > 100 µM | UO-31 60.1 µM | NCI-H460 > 100 µM | HT-29 > 100 µM | UACC-62 64.1 µM | SK-OV-3 > 100 µM | SNB-75 > 100 µM | OVCAR-8 41.8 µM | Malme-3M > 100 µM | SF-295 > 100 µM | RXF 393 > 100 µM | A498 > 100 µM | SN12C > 100 µM | MOLT-4 46.8 µM | M14 98.6 µM | NCI-H226 > 100 µM | NCI-H522 69 µM | U-251 > 100 µM | DLD-1 > 100 µM | OVCAR-5 > 100 µM | SNB-19 > 100 µM | SF-268 60 µM
